Laboratory results reported in PubChem BioAssay (NCI).
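Cells were grown in 96-well plates and exposed to each compound for 48 hours at five concentrations; endpoints were interpolated linearly between bracketing concentrations, or set to the highest concentration if not reached. Abbreviation: GI50, concentration required for 50% inhibition of growth. TGI marks complete inhibition of growth.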

Tests used:
Assay in all cases: inhibition of tumour cell growth, NCI panel, 48 h
A549 NSCLC = system: A549 NSCLC
UACC-257 melanoma = system: UACC-257 melanoma
MDA-MB-231 breast = system: MDA-MB-231 breast
BT-549 breast = system: BT-549 breast
SF-539 CNS = system: SF-539 CNS
NCI-H460 lung = system: NCI-H460 lung
MALME-3M melanoma = system: MALME-3M melanoma
T-47D breast = system: T-47D breast
HS 578T breast = system: HS 578T breast
SK-MEL-28 melanoma = system: SK-MEL-28 melanoma
HT29 colon = system: HT29 colon
RPMI-8226 leukemia = system: RPMI-8226 leukemia
SF-295 CNS = system: SF-295 CNS
COLO 205 colon = system: COLO 205 colon
MCF7 breast = system: MCF7 breast
CCRF-CEM leukemia = system: CCRF-CEM leukemia
PC-3 prostate = system: PC-3 prostate
LOX IMVI melanoma = system: LOX IMVI melanoma
HCC-2998 colon = system: HCC-2998 colon
UACC-62 melanoma = system: UACC-62 melanoma
ACHN renal = system: ACHN renal
HOP-92 NSCLC = system: HOP-92 NSCLC
OVCAR-8 ovarian = system: OVCAR-8 ovarian
U251 CNS = system: U251 CNS
KM12 colon = system: KM12 colon
SF-268 CNS = system: SF-268 CNS
HCT-15 colon = system: HCT-15 colon
HCT-116 colon = system: HCT-116 colon
SNB-75 CNS = system: SNB-75 CNS
EKVX NSCLC = system: EKVX NSCLC
SK-OV-3 ovarian = system: SK-OV-3 ovarian
K-562 leukemia = system: K-562 leukemia
786-0 renal = system: 786-0 renal
SN12C renal = system: SN12C renal
NCI-H23 lung = system: NCI-H23 lung
MDA-MB-435 = system: MDA-MB-435
SW-620 colon = system: SW-620 colon
SR leukemia = system: SR leukemia
NCI/ADR-RES ovarian = system: NCI/ADR-RES ovarian
HL-60(TB) leukemia = system: HL-60(TB) leukemia
MDA-MB-468 breast = system: MDA-MB-468 breast
OVCAR-4 ovarian = system: OVCAR-4 ovarian
NCI-H226 lung = system: NCI-H226 lung
A498 renal = system: A498 renal
SK-MEL-2 melanoma = system: SK-MEL-2 melanoma
UO-31 renal = system: UO-31 renal
OVCAR-3 ovarian = system: OVCAR-3 ovarian
SK-MEL-5 melanoma = system: SK-MEL-5 melanoma
NCI-H522 lung = system: NCI-H522 lung
RXF 393 renal = system: RXF 393 renal
MOLT-4 leukemia = system: MOLT-4 leukemia
SNB-19 CNS = system: SNB-19 CNS
IGROV1 ovarian = system: IGROV1 ovarian
TK-10 renal = system: TK-10 renal
CAKI-1 renal = system: CAKI-1 renal
HOP-62 NSCLC = system: HOP-62 NSCLC
DU-145 prostate = system: DU-145 prostate
OVCAR-5 ovarian = system: OVCAR-5 ovarian
M14 melanoma = system: M14 melanoma

Work on COc1cc2nc(SCc3ccccc3)n(-c3ccc(Cl)cc3)c(=O)c2cc1OC yielded a GI50 (A549 NSCLC) of 8.69 µM, a TGI (A549 NSCLC) of 29.6 µM and a GI50 (UACC-257 melanoma) of 39.2 µM. For the same molecule, the TGI (UACC-257 melanoma) was greater than 100 µM, the GI50 (MDA-MB-231 breast) was 16.7 µM and the TGI (MDA-MB-231 breast) was 79.1 µM. For the same molecule, the GI50 (BT-549 breast) was 22 µM, the TGI (BT-549 breast) was 82.4 µM and the GI50 (SF-539 CNS) was 7.07 µM. For the same molecule, the TGI (SF-539 CNS) was 20.1 µM, the GI50 (NCI-H460 lung) was 8.29 µM and the TGI (NCI-H460 lung) was 33.2 µM. It also gave a GI50 (MALME-3M melanoma) of 19.1 µM, a TGI (MALME-3M melanoma) of 68.5 µM and a GI50 (T-47D breast) of 28.1 µM. For the same molecule, the TGI (T-47D breast) was greater than 100 µM, the GI50 (HS 578T breast) was 6.63 µM and the TGI (HS 578T breast) was 48.6 µM. The GI50 (SK-MEL-28 melanoma) was 21.8 µM, the TGI (SK-MEL-28 melanoma) was greater than 100 µM and the GI50 (HT29 colon) was 40.4 µM. It also gave a TGI (HT29 colon) greater than 100 µM, a GI50 (RPMI-8226 leukemia) of 66.1 µM and a TGI (RPMI-8226 leukemia) greater than 100 µM. The GI50 (SF-295 CNS) was 4.36 µM, the TGI (SF-295 CNS) was 17.8 µM and the GI50 (COLO 205 colon) was 29.4 µM. The TGI (COLO 205 colon) was greater than 100 µM, the GI50 (MCF7 breast) was 14.5 µM and the TGI (MCF7 breast) was greater than 100 µM. It also gave a GI50 (CCRF-CEM leukemia) of 38.1 µM, a TGI (CCRF-CEM leukemia) greater than 100 µM and a GI50 (PC-3 prostate) of 16.1 µM. It also gave a TGI (PC-3 prostate) greater than 100 µM, a GI50 (LOX IMVI melanoma) of 5.77 µM and a TGI (LOX IMVI melanoma) of 18.9 µM. It also gave a GI50 (HCC-2998 colon) of 22.5 µM, a TGI (HCC-2998 colon) greater than 100 µM and a GI50 (UACC-62 melanoma) of 42.8 µM. For the same molecule, the TGI (UACC-62 melanoma) was greater than 100 µM, the GI50 (ACHN renal) was 4.69 µM and the TGI (ACHN renal) was 19 µM. It also gave a GI50 (HOP-92 NSCLC) of 16.1 µM, a TGI (HOP-92 NSCLC) of 49 µM and a GI50 (OVCAR-8 ovarian) of 17.5 µM. The TGI (OVCAR-8 ovarian) was 66.6 µM, the GI50 (U251 CNS) was 8.14 µM and the TGI (U251 CNS) was 31.8 µM. It also gave a GI50 (KM12 colon) greater than 100 µM, a TGI (KM12 colon) greater than 100 µM and a GI50 (SF-268 CNS) of 10.3 µM. It also gave a TGI (SF-268 CNS) of 44.4 µM, a GI50 (HCT-15 colon) of 19 µM and a TGI (HCT-15 colon) greater than 100 µM. For the same molecule, the GI50 (HCT-116 colon) was 5.09 µM, the TGI (HCT-116 colon) was 23.4 µM and the GI50 (SNB-75 CNS) was 2.27 µM. For the same molecule, the TGI (SNB-75 CNS) was 7.86 µM, the GI50 (EKVX NSCLC) was 16.6 µM and the TGI (EKVX NSCLC) was 50.5 µM. The GI50 (SK-OV-3 ovarian) was 16.6 µM, the TGI (SK-OV-3 ovarian) was 53 µM and the GI50 (K-562 leukemia) was 12 µM. The TGI (K-562 leukemia) was 35.6 µM, the GI50 (786-0 renal) was 3.84 µM and the TGI (786-0 renal) was 15.6 µM. For the same molecule, the GI50 (SN12C renal) was 11.5 µM, the TGI (SN12C renal) was 75.8 µM and the GI50 (NCI-H23 lung) was 11.2 µM. It also gave a TGI (NCI-H23 lung) of 30.7 µM, a GI50 (MDA-MB-435) of 64.1 µM and a TGI (MDA-MB-435) greater than 100 µM. It also gave a GI50 (SW-620 colon) of 20.1 µM, a TGI (SW-620 colon) greater than 100 µM and a GI50 (SR leukemia) of 16.5 µM. The TGI (SR leukemia) was greater than 100 µM, the GI50 (NCI/ADR-RES ovarian) was 6.25 µM and the TGI (NCI/ADR-RES ovarian) was 22.7 µM. The GI50 (HL-60(TB) leukemia) was greater than 100 µM, the TGI (HL-60(TB) leukemia) was greater than 100 µM and the GI50 (MDA-MB-468 breast) was 7.61 µM. It also gave a TGI (MDA-MB-468 breast) of 45.6 µM, a GI50 (OVCAR-4 ovarian) of 3.54 µM and a TGI (OVCAR-4 ovarian) of 16.9 µM. It also gave a GI50 (NCI-H226 lung) of 3.55 µM, a TGI (NCI-H226 lung) of 22.7 µM and a GI50 (A498 renal) of 19.6 µM. The TGI (A498 renal) was 45.2 µM, the GI50 (SK-MEL-2 melanoma) was 36.8 µM and the TGI (SK-MEL-2 melanoma) was greater than 100 µM. It also gave a GI50 (UO-31 renal) of 13.9 µM, a TGI (UO-31 renal) of 51.7 µM and a GI50 (OVCAR-3 ovarian) of 15.8 µM. For the same molecule, the TGI (OVCAR-3 ovarian) was 44.5 µM, the GI50 (SK-MEL-5 melanoma) was 47.9 µM and the TGI (SK-MEL-5 melanoma) was greater than 100 µM. The GI50 (NCI-H522 lung) was 18.9 µM, the TGI (NCI-H522 lung) was 88.2 µM and the GI50 (RXF 393 renal) was 4.99 µM. For the same molecule, the TGI (RXF 393 renal) was 27.8 µM, the GI50 (MOLT-4 leukemia) was 25.2 µM and the TGI (MOLT-4 leukemia) was greater than 100 µM. It also gave a GI50 (SNB-19 CNS) of 12.6 µM, a TGI (SNB-19 CNS) of 36 µM and a GI50 (IGROV1 ovarian) of 20.8 µM. It also gave a TGI (IGROV1 ovarian) of 80.4 µM, a GI50 (TK-10 renal) of 20.3 µM and a TGI (TK-10 renal) of 44.9 µM. It also gave a GI50 (CAKI-1 renal) of 3.34 µM, a TGI (CAKI-1 renal) of 13.7 µM and a GI50 (HOP-62 NSCLC) of 4.65 µM. For the same molecule, the TGI (HOP-62 NSCLC) was 18.4 µM, the GI50 (DU-145 prostate) was 22.3 µM and the TGI (DU-145 prostate) was 98.1 µM. For the same molecule, the GI50 (OVCAR-5 ovarian) was 31 µM, the TGI (OVCAR-5 ovarian) was greater than 100 µM and the GI50 (M14 melanoma) was 42.7 µM. The TGI (M14 melanoma) was greater than 100 µM.
